Experimental data: patent EP0409410B1, “Indenoindole compounds” (UNIVERSITY OF BATH, priority 1989, dated 1991)

Key:
[1] = system: ascorbate/Fe²⁺-dependent lipid peroxidation; assay: Ascorbate/Fe²⁺-dependent lipid peroxidation (2-thiobarbituric acid-reactive material); type: biochemical; conditions: concentration required to inhibit lipid peroxidation by 50%; 200 µg/ml soy bean phospholipid, 10 µM iron, 100 µM ascorbic acid, 0.1 M KPi pH 7.4, room temperature, 30 min
From the text: (§1) The most remarkable feature of the compounds of the invention is their efficacy as free-radical scavengers or antioxidants. An assay system measuring the concentration of the compounds of formulas (IA) and (IB) required to inhibit lipid peroxidation by 50% (IC₅₀) was used. Other assays described below are the red blood cell fragility test used for measuring membrane stabilisation by indenoindoles (Table 2), and protection by indenoindoles against cytotoxicity of N-methyl-N¹-nitro-N-nitrosoguanidine (MNNG) in rat hepatocytes (Table 3). MNNG is a highly cytotoxic agent, the mechanism of action of which may involve a radical-mediated membrane destabilization.
For the ferrous/ascorbate lipid peroxidation system, 6.25 ml of 0.1 M potassium phosphate buffer (KPi), pH 7.4, was added to 12.5 mg dried soy bean phospholipids. After flushing with argon for 2 min, the suspension was sealed with five layers of Parafilm and sonicated until the suspension was translucent. The final reaction mixture was composed of 200 µg/ml phospholipid, 10 µM FeNH₄ (SO₄)₂ or Fe(NH₄)₂(SO₄)₂, and 100 µM ascorbic acid in 0.1 M KPi (pH 7.4), and the antioxidant to be tested in acetone or DMSO. The volume of vehicle never exceeded 1% of the total volume. The reaction was initiated by the addition of ascorbic acid plus iron. The reaction was continued at room temperature in a shaking water bath for 30 min and then stopped by the addition of […] of 0.5 M butylated hydroxytoluene in DMSO. The above procedure and the subsequent determination of 2-thiobarbituric acid-reactive material is described in: Shertzer, H.G. et al, Biochem. Pharmacol. 37, 333 (1988). […]

[2] = system: red blood cells; assay: Red blood cell fragility test (membrane stabilization, protection from osmolysis); type: cell-based, Rats; conditions: red blood cell fragility protective index value: linear regression slope, percentage protection against osmolysis per µM protecting agent; rat blood, absorbance at 656 nm
From the text: as §1
The membrane stabilization effect of indenoindoles was assayed by the red blood cell fragility test. Rats were anesthesized With 65 mg pentobarbital per kg body weight by i.p. injection. Blood samples were removed into a heparinized syringe from the left ventricle and diluted 20-fold with buffer containing 140 mM NaCl, 10 mM sodium citrate and 5 mM glucose (pH 7.4) at 0°C. Diluted blood was kept on ice. A 0.75 ml aliquot of blood was added to a 4 ml cuvette containing 10 µl DMSO or 10 µl of the antioxidant dissolved in DMSO vehicle. After 1 min of gentle swirling, 0.75 ml of 0.9 % NaCl or H₂O were added to the cuvette by forceful pipetting, and the absorbance at 656 nm was recorded with a Beckman DU-70 spectrophotometer. When H₂O was added in the absence of a stabilizing agent, absorbance decreased wtihin 15 sec to 0.8. Addition of NaCl instead of H₂O gave a time-independent absorbance of 2.2. In the presence of increasing concentrations of stabilizing chemicals, the absorbance decrease observed after the addition of water was diminished. The % protection from osmolysis was obtained from the equation [E(2.2- 0.8) - A/2.2-0.8)] x 100% [formula] , where A=2.2 minus the absor bance decrease when water is added in the presence of a known concentration of chemical. The % protection is then plotted against several concentrations of the chemical being treated. The red blood cell fragility protective index value (RBC-PIV) is the linear regression slope of this plot, expressed as the percentage protection against osmolysis per µM protecting agent. […]

[3] = system: rat hepatocytes; assay: Protection against cytotoxic effects of MNNG in hepatocytes (trypan blue exclusion); type: cell-based, male Sprague-Dawley rats; conditions: Hepatocyte, concentration of compound required to extend by 1 hour the time needed for MNNG (0.5 mM) to kill 50 % of the viable cells, read-out: IC₅₀
From the text: as §1
The protective effects of indenoindoles on MNNG-induced cytotoxicity was assayed with rat hepatocytes. Hepatocytes were prepared from male Sprague-Dawley rats by collagenase treatment as originally described by Zahlten and Stratman (Zahlten, R.N. and Stratman, F.W., Arch. Biochem. Biophys. 163, 600 (1988)), as modified by Reitman et al (Reitman, F.A., Shertzer, H.G. and Berger, M.L., Biochem. Pharmacol. 37,3183 (1988)). In order to improve viability, cells were centrifuged through 0.508 g/ml Percoll (Pharmacia AB, Uppsala, Sweden) in 137 mM NaCl, 8.1 mM Na₂HPO₄ and 1.5 mM KH₂PO₄ (pH 7.4). Putative protecting agents were added to the cells as solutions in DMSO, with the final concentration of DMSO never exceeding 5 µl/ml of cell suspension. MNNG was added to a concentration of 0.5 mM as a solution in ethanol, giving a final concentration of ethanol of 1%; ethanol alone was by itself without effect. Viability was determined as the percentage of cells that excluded 0.2 % trypan blue. Values are the concentration of compound required to extend by 1 hour the time needed for MNNG to kill 50 % of the viable cells.

SMILES	pIC₅₀ [1]	RBC-PIV [2]	IC50 [3]
COc1ccc2c(c1)[C@H]1Cc3c(cc(C)c(OC)c3C)[C@H]1N2 (relative stereo) [2,8-Dimethoxy-1,3,dimethyl-THII, cis-4b,5,9b,10-Tetrahydro-2,8-dimethoxy-1,3-dimethylindeno[1,2-b]indole]	8.1	–	–
CCN(CC)c1ccc2c(c1)C[C@@H]1c3ccccc3N[C@H]21 (relative stereo) [2-Diethylamino-THII, cis-4b,5,9b,10-Tetrahydro-2-(N,N-Diethylamino)-indeno[1,2-b]indole]	7.2	–	–
Cc1cc2c(c(C)c1O)C[C@@H]1c3ccccc3N[C@H]21 (relative stereo) [2-Hydroxy-1,3-dimethyl-THII, cis-4b,5,9b,10-Tetrahydro-2-hydroxy-1,3-dimethylindeno[1,2-b]indole]	7.9	–	–
COc1c(C)cc2c(c1C)C[C@@H]1c3ccccc3N[C@H]21 (relative stereo) [2-Methoxy-1,3-dimethyl-THII, cis-4b,5,9b,10-Tetrahydro-2-methoxy-1,3-dimethylindeno[1,2-b]indole]	7.2	–	–
Cc1ccc2c(c1)[C@@]1(C)Cc3ccccc3[C@@]1(C)N2C (relative stereo) [4b,5,8,9b-Tetramethyl-THII, cis-4b,5,9b,10-tetrahydro-4b,5,8,9b-tetramethylindeno[1,2-b]indole]	6.8	–	–
Cc1cc(C)c2c(c1)[C@@]1(C)Cc3ccccc3[C@@]1(C)N2 (relative stereo) [4b,6,8,9b-Tetramethyl-THII, cis-4b,5,9b,10-Tetrahydro-4b,6,8,9b-tetramethylindeno[1,2-b]indole]	7.4	–	–
Cc1ccc2c(c1)[C@@]1(C)Cc3ccccc3[C@@]1(C)N2 (relative stereo) [4b,8,9b-Trimethyl-THII, cis 4b,5,9b,10-Tetrahydro-4b,8,9b-trimethylindeno[1,2-b]indole]	7.6	–	–
CN1c2ccccc2[C@H]2Cc3ccccc3[C@H]21 (relative stereo) [5-Methyl-THII, cis-4b,5,9b,10-Tetrahydro-5-methylindeno[1,2-b]indole]	6.1	0.64 %/µM	2.2 µM
Cc1cc(C)c2c(c1)[C@H]1Cc3ccccc3[C@H]1N2 (relative stereo) [6,8-Dimethyl-THII, cis-4b,5,9b,10-Tetrahydro-6,8-dimethylindeno[1,2-b]indole]	7.3	–	–
Fc1ccc2c(c1)[C@H]1Cc3ccccc3[C@H]1N2 (relative stereo) [8-Fluoro-THII, cis-4b,5,9b,10-Tetrahydro-8-fluoroindeno[1,2-b]indole]	7.5	–	–
CC(C)c1ccc2c(c1)[C@@]1(C)Cc3ccccc3[C@@]1(C)N2 (relative stereo) [8-Isopropyl-4b,9b-dimethyl, cis-4b,5,9b,10-Tetrahydro-4b,9b-dimethyl-8-isopropylindeno[1,2-b]indole]	7.7	–	–
CC(C)c1ccc2c(c1)[C@H]1Cc3ccccc3[C@@]1(C)N2 (relative stereo) [8-Isopropyl-4b-methyl-THII, cis-4b,5,9b,10-Tetrahydro-4b-methyl-8-isopropylindeno-[1,2-b]indole]	7.7	–	–
CC(C)c1ccc2c(c1)[C@H]1Cc3ccccc3[C@H]1N2 (relative stereo) [8-Isopropyl-THII, cis-4b,5,9b,10-Tetrahydro-8-iso-propylindeno[1,2-b]indole]	7.3	–	–
COc1cc(C)c2c(c1)[C@H]1Cc3ccccc3[C@H]1N2 (relative stereo) [8-Methoxy-6-methyl-THII, cis-4b,5,9b,10-Tetrahydro-8-methoxy 6-methylindeno[1,2-b]indole]	8.0	–	–
COc1ccc2c(c1)[C@H]1Cc3ccccc3[C@H]1N2 (relative stereo) [8-Methoxy-THII, cis-4b,5,9b,10-Tetrahydro-8-methoxyindeno[1,2-b]indole]	–	0.21 %/µM	–
Cc1ccc2c(c1)[C@H]1Cc3ccccc3[C@H]1N2 (relative stereo) [8-Methyl-THII, cis-4b,5,9b,10-Tetrahydro-8 methylindeno[1,2-b]indole]	7.1	–	–
CC(C)c1ccc2c(c1)[C@@H]1c3ccccc3C[C@@H]1N2 (relative stereo) [9-Isopropyl-iso-THII, cis-5,5a,6,10b-Tetrahydro-9-isopropylindeno[2,1-b]indole]	7.4	–	–
COc1ccc2c(c1)[C@@H]1c3ccccc3C[C@@H]1N2 (relative stereo) [9-Methoxy-iso-THII, cis-5,5a,6,10b-Tetrahydro-9-methoxyindeno[2,1-b]indole]	7.7	–	–
CC1(C)c2ccccc2[C@H]2Nc3ccccc3[C@H]21 (relative stereo) [10,10-Dimethyl-THII, cis-4b,5,9b,10-Tetrahydro-10,10-dimethylindeno [1,2-b] indole]	6.9	–	–
c1ccc2c(c1)C[C@@H]1c3ccccc3N[C@H]21 (relative stereo) [THII, cis-4b,5,9b,10-Tetrahydroindeno[1,2-b]indole]	6.9	0.41 %/µM	2.2 µM
c1ccc2c(c1)C[C@H]1Nc3ccccc3[C@@H]21 (relative stereo) [iso-THII, cis-5,5a,6,10b-Tetrahydroindeno[2,1-b]indole]	6.9	0.38 %/µM	2 µM
CC12Cc3ccccc3C1(C)Nc1ccccc12 (stereo not drawn) [4b,9b-Dimethyl-THII, cis-4b,5,9b,10-Tetrahydro-4b,9b-dimethylindenol[1.2-b]indole]	7.2	–	–
CC12Nc3ccccc3C1Cc1ccccc12 (stereo not drawn) [4b-Methyl-THII, cis-4b,5,9b,10-Tetrahydro-4b-methylindeno[1,2-b]inole]	7.1	–	–
Cc1ccc2c(c1)C1Cc3ccccc3C1N2C (stereo not drawn) [5,8-Dimethyl-THII, cis-4b,5,9b,10-Tetrahydro-5,8-dimethylindenol[1,2-b]indole]	6.4	–	–
CN1c2ccccc2[C@H]2c3ccccc3C[C@H]21 [6-Methyl-iso-THII, cis-5,5a,6,10b-Tetrahydro-methylindeno[2.1-b]indole]	6.1	–	–
CCN(CC)c1ccc2c(c1)C1Cc3ccccc3C1N2CC (stereo not drawn) [8-Diethylamino-5-ethyl-THII, cis-4b,5,9b,10-Tetrahydro-5-ethyl-8-(N.N-diethylamino)-indeno[1,2-b]indole]	7.1	–	–
COc1ccc2c(c1)C1Cc3ccccc3C1N2C (stereo not drawn) [8-Methoxy-5-methyl-THII, cis-4b.5.9b,10-Tetrahydro-8-methoxy-5-methylindeno[1,2-b]indole]	7.0	–	–
CC12Cc3ccccc3C1Nc1ccccc12 (stereo not drawn) [9b-Methyl-THII, cis-4b,5,9b,10-Tetrahydro-9b-methylindeno [1.2-b]-indole]	7.0	–	–
Cc1c(C)c2c(c(C)c1O)CCC(C)(CCCC(C)CCCC(C)CCCC(C)C)O2 (stereo not drawn) [α-Tocopherol (Vitamin E), α-Tocopherol, reference compound]	5.0	0.10 %/µM	–
CC(=O)Oc1c(C)c(C)c2c(c1C)CCC(C)(CCCC(C)CCCC(C)CCCC(C)C)O2 (stereo not drawn) [α-Tocopheryl-acetate, reference compound]	–	–	161 µM
